The text below walks through data of patent publication US20260285870A1, “TRIAZOLOPYRIDAZINE DERIVATIVE, PREPARATION METHOD THEREFOR, PHARMACEUTICAL COMPOSITION THEREOF, AND USE THEREOF” (SHANGHAI SIMR BIOTECHNOLOGY CO., LTD., priority 2019, published 2026).

Test system in the first data set: not listed separately
The experiment in a line: Pharmacokinetic experiment on rats: brain entry ratio (brain tissue/plasma concentration ratio). Type of data set: in vivo. The settings on record: male SD rats, po, 10 mg/kg, 0.5 hours. As for the experimental part:
The drug concentration ratio of plasma and brain tissue in the pharmacokinetic experiment on rats was used to evaluate the entry of compounds into brain. All rats fasted overnight before administration; the test compounds were dissolved and administered orally (po) to male SD rats, with 3 rats in each group. After administration of the test compounds, blood was collected by jugular vein puncture at 0.5 hours with about 0.25 mL per sample. The whole brain was taken at the same time. The plasma and brain tissue drug concentration were determined by LC-MS/MS method, and the pharmacokinetic parameters were calculated by Phoenix WinNonlin7.0. The dosage was 10 mg/kg, and the vehicle was 5% CMC-Na aqueous solution.
As for `COc1cc2nnc(-c3cc(C)on3)n2nc1OCc1ccc2c(n1)CCN(C(CO)CO)C2` [Embodiment 185], the Brain entry ratio is on record as 0%.

Test system in another data set: not listed separately
The experiment in a line: Rat liver microsome stability (RLM) experiment. The conditions noted are these: pH 7.4; rat liver microsomes 0.5 mg protein/mL, NADPH, 37° C., 0-45 min. The class given is in vitro ADME. As for the experimental part:
Rat liver microsomes (Xenotech, item No. R1000, lot No. 1310030), 100 mM potassium phosphate buffer solution (pH 7.4), 10 mM magnesium chloride.
Compound preparation: 5 μL of compound DMSO mother liquor (10 mM) was added to 495 μL of methanol to obtain an intermediate solution with a compound concentration of 100 μM. Then 50 μL of the intermediate solution was taken and dissolved in 450 μL of potassium phosphate buffer solution to obtain a test solution with a final concentration of 10 μM.
NADPH regeneration system (concentration of isocitrate dehydrogenase 1 unit/mL).
Liver microsomes (final concentration 0.5 mg protein/mL).
Reaction termination solution: cold acetonitrile containing 100 ng/mL Tolbutamide and 100 ng/mL Labetalol as an internal standard.
• (1) Preparation of Buffer Solution: • Buffer solution A: 1.0 L of 0.1 M potassium phosphate buffer solution containing 1.0 mM EDTA • Buffer solution B: 1.0 L of 0.1 M dipotassium phosphate buffer solution containing 1.0 mM EDTA • Buffer solution C: 0.1 M potassium phosphate buffer, 1.0 mM EDTA, pH 7.4, titrated with 700 mL of buffer solution B and buffer solution A, monitored by pH meter. • (2) Preparation of Reference Substance (Ketanserin) and Concentration of Administration Solution of the Test Substance
5000 administration solution: […] 10 mM DMSO reference substance stock solution and test substance stock solution were added to 190 μL of ACN, respectively. 1.5 μM administration solution (containing 0.75 mg/mL liver microsomes): […] administration solution and 18.75 μL of 20 mg/mL liver microsomes were added to 479.75 μL of buffer C on a wet ice. • (3) NADPH was added to buffer solution C to obtain a NADPH stock solution (6 mM). • (4) 30 μL of 1.5 μM administration solution (containing 0.75 mg/mL of liver microsomes) was taken on the wet ice and added to the wells of the test plate at different time points (0-, 5-, 15-, 30-, 45-min), respectively. • (5) Firstly, 135 μL of ACN containing IS was added to the wells of a 0 min test plate, and then 15 µL of the NADPH stock solution (6 mM) was added. • (6) The test plate at other time points and the NADPH stock solution were pre-heated in a 37° C. water bath for 5 minutes. • (7) 15 μL of the NADPH stock solution (6 mM) was taken and added to a pre-incubated test plate, and the reaction was started and timed. • (8) At 5 min, 15 min, 30 min and 45 min, 135 µL of CAN containing IS was added to the corresponding test plate respectively, and the test was completed. • (9) Test plates were shaken with a shaker (IKA, MTS 2/4) for 10 min (600 rpm/min) and then centrifuged for 15 min (Thermo Multifuge×3R, 5594 g). • (10) 50 μL of supernatant from each well was added to a 96-well sample plate containing 50 μL of ultrapure water (Millipore, ZMQS50F01), and the samples were analyzed by LC/MS.
The microsomal CLint is a measure of how fast metabolising enzymes remove a compound, apart from limits set by blood flow. The molecule `COCc1ccc(COc2nn3c(-c4cc(C)on4)nnc3cc2OC)nn1` [Embodiment 151] had a microsomal CLint of 1 µL/min/mg. `COc1cc2nnc(-c3cc(C)on3)n2nc1OCc1ccc2c(n1)CCN(Cc1cc(C)on1)C2` [Embodiment 187] returned an intrinsic metabolic clearance (microsomal CLint) of 15 µL/min/mg. On the same count and under the same terms, the result for `COc1cc2nnc(-c3cc(C)on3)n2nc1OCc1ccc2c(n1)CN(C1CCOCC1)C2` [Embodiment 253] reads 10 µL/min/mg; that for `COCCCOc1ccc(COc2nn3c(-c4noc(C)n4)nnc3cc2OC)nn1` [Embodiment 129], 14 µL/min/mg; that for `CCNC(=O)c1ccc(COc2nn3c(-c4cc(C)on4)nnc3cc2C(C)(C)C)nc1` [Compound 42 in CN107344936A, reference compound], 143 µL/min/mg.

With `COc1cc2nnc(-c3cc(C)on3)n2nc1OCc1ccc2c(n1)CCN(C1CCOC1)C2` (stereo not shown) [Embodiment 183], the microsomal CLint came to 5 µL/min/mg.

On to `COc1cc2nnc(-c3cc(C)on3)n2nc1OCc1ccccn1` [Embodiment 33], for which the microsomal CLint stood at 0.3 µL/min/mg. Same read-out and setting: the result for `COc1cc2nnc(-c3cc(C)on3)n2nc1OCc1ccc(C2(F)CN(C3COC3)C2)cn1` [Embodiment 128] reads 6 µL/min/mg; that for `COc1cc2nnc(-c3cc(C)on3)n2nc1OCc1ccc2c(n1)CCN(C1CCOCC1)C2` [Embodiment 186], 22 µL/min/mg; that for `COCc1cn2nc(COc3nn4c(-c5cc(C)on5)nnc4cc3OC)ccc2n1` [Embodiment 213], 10 µL/min/mg. Still for that read-out and setting: for `COc1cc2nnc(-c3cc(C)on3)n2nc1OCc1ccc(OC2CCOCC2)nn1` [Embodiment 152] the value was 23 µL/min/mg; for `COc1cc2nnc(-c3cc(C)on3)n2nc1OCc1ccc(OC2CCOC2)nn1` (stereo not shown) [Embodiment 154], 1 µL/min/mg; for `Cc1cc(-c2nnc3c4ccccc4c(OCc4ccccn4)nn23)no1` [α51A-II, reference compound], 28.2 µL/min/mg. The same measure, in the same setting: the result for `COc1cc2nnc(-c3cc(C)on3)n2nc1OCc1ccc2nc(C#N)cn2n1` [Embodiment 211] reads 5 µL/min/mg; that for `COc1cc2nnc(-c3cc(C)on3)n2nc1OCc1ccc2c(n1)CN(C)C2` [Embodiment 160], 6 µL/min/mg; that for `CCNC(=O)c1ccc(COc2nn3c(-c4cc(C)on4)nnc3cc2OC)nc1` [Embodiment 35], 11.4 µL/min/mg. Turning to `Cc1cc(-c2nnc3cc(C(C)(C)C)c(OCc4ccccn4)nn23)no1` [drawing 926, reference compound], the microsomal CLint was 33.6 µL/min/mg. For the molecule `COc1cc2nnc(-c3cc(C)on3)n2nc1OCc1ccc2c(n1)CCN(C(CO)CO)C2` [Embodiment 185], the microsomal CLint was determined as 9 µL/min/mg. `COc1cc2nnc(-c3cc(C)on3)n2nc1OCc1ccc(OC2COC2)nn1` [Embodiment 153] came in with a microsomal CLint of 5 µL/min/mg.

The same data set, now with this note: rat liver microsomes 0.5 mg protein/mL, NADPH, 37° C., 0-45 min.
As to `COc1cc2nnc(-c3cc(C)on3)n2nc1OCc1ccc2c(n1)CCN(C1COC1)C2` [Embodiment 84], the RLM turned out to be 0 µL/min/mg. Consider `COCCOCc1ccc(COc2nn3c(-c4cc(C)on4)nnc3cc2OC)nn1` [Embodiment 166], for which the RLM stood at 0 µL/min/mg.

Test system in a further data set: not listed separately
The experiment in a line: Pharmacokinetic experiment on rats: maximum plasma drug concentration (Cmax). Type of data set: in vivo. The settings on record: rat, male SD rats, po, 10 mg/kg, 5% CMC-Na aqueous solution. As for the experimental part:
In the pharmacokinetic experiment on rats, the maximum plasma drug concentration (Cmax) was used to evaluate the absorption of the compounds in rats. All rats fasted overnight before administration; the test compounds were dissolved and administered orally (po) to male SD rats, with 3 rats in each group. After administration of the test compounds, blood was collected by jugular vein puncture at […] with about 0.25 mL per sample. The plasma drug concentration was determined by LC-MS/MS method, and the pharmacokinetic parameters were calculated by Phoenix WinNonlin7.0. The dosage was 10 mg/kg, and the vehicle was 5% CMC-Na aqueous solution.
The term Cmax denotes the peak of the concentration-time curve. The molecule `COc1cc2nnc(-c3cc(C)on3)n2nc1OCc1ccccn1` [Embodiment 33] showed a Cmax of 1780 ng/mL. The same measure, in the same setting: for `Cc1cc(-c2nnc3c4ccccc4c(OCc4ccccn4)nn23)no1` [α51A-II, reference compound] the value was 25.7 ng/mL; for `Cc1cc(-c2nnc3cc(C(C)(C)C)c(OCc4ccccn4)nn23)no1` [drawing 930], 216 ng/mL.

Test system in the next data set: not listed separately
The experiment in a line: Water solubility observed during work-up. Type of data set: physicochemical. The conditions noted are these: observation at extraction, pH=7. As for the experimental part:
Methyl 6-[7-methoxy-3-(5-methyl-isoxazol-3-yl)-[1,2,4]triazolo[4,3-b]pyridazin-6-yloxymethyl]-nicotinate (300 mg, 0.75 mmol), 1 M lithium hydroxide (1.5 mL, 1.5 mmol) were sequentially added to 10 mL of ethanol, and the mixture was stirred at room temperature for 1 hour. The mixture was added with 0.5 M hydrochloric acid to neutralize to pH=7, diluted with water, extracted with ethyl acetate. […] LC-MS: m/z [M+H]^+=383.
With `COc1cc2nnc(-c3cc(C)on3)n2nc1OCc1ccc(C(=O)O)cn1` [Embodiment 63], the water solubility entry is reported as “good water solubility”.

Another data set deals with α5-GABAA receptor.
Test: not given
The conditions noted are these: animal models; cited from earlier work.
In the case of `Cc1cc(-c2nncc3c(C(C)(C)C)c(OCc4ncnn4C)nn23)no1` [MRK-016], the “therapeutic effects on cognition related diseases” value is “good therapeutic effects”.

Regarding `Cc1cc(-c2nnc3c4ccccc4c(OCc4cn(C)nn4)nn23)no1` [α5IA], the “therapeutic effects on cognition related diseases” value was “good therapeutic effects”.

The next data set has as its system α5-GABAA receptor.
Test: not given
More on the design: suppression of the current induced by GABA: dose or concentration left out as unconfirmed. The conditions noted are these: GABA concentration increased further; cited from earlier work.
For the molecule `CCOC(=O)c1ncn2c1[C@@H]1CCCN1C(=O)c1cc(OC)ccc1-2` [L-655,708], the “inhibitory effect on the current induced by GABA” value is “no inhibitory effect”.

The same data set, now with this note: highest concentration of L-655,708; cited from earlier work.
`CCOC(=O)c1ncn2c1[C@@H]1CCCN1C(=O)c1cc(OC)ccc1-2` [L-655,708]: the “suppression of the current induced by GABA” value is 15%.

Still in this data set, the particulars now being: low concentrations of GABA (5, 50 and 500 nM); cited from earlier work.
On to `CCOC(=O)c1ncn2c1[C@@H]1CCCN1C(=O)c1cc(OC)ccc1-2` [L-655,708], for which the “inhibition of the current induced by GABA” value is on record as “dose-dependently inhibited”.
